This passage reports IC50 results from patent publication US20240409585A1, “MACROCYCLIC IMMUNOMODULATORS” (priority 2021, published 2024).

In general, IC50 refers to the concentration that inhibits the measured activity by half.

Each structure is given as a SMILES string. Numbered stars: 1 amine (or outer) side, 2 acyl side, 3 side chain; on linkers, the order of the positions; unused ones are H or OH. Bridge positions count the residues as written; N and C are the ends. Square brackets hold non-standard residues; d marks the D form. Peptide text beside a SMILES is read from it. * marks the point of attachment. ξ: configuration not given here. Phe(3-COOH) = N[C@@H](Cc1cccc(C(=O)O)c1)C(=O)O; Phe(4-COOH) = N[C@@H](Cc1ccc(C(=O)O)cc1)C(=O)O; X28 = O=C([C@H](Cc1ccc2ccncc2c1)N[*:1])[*:2]; Bip = N[C@@H](Cc1ccc(-c2ccccc2)cc1)C(=O)O; Phe(3-OMe) = COc1cccc(C[C@H](N)C(=O)O)c1; aIle = CC[C@@H](C)[C@H](N)C(=O)O; Cha = N[C@@H](CC1CCCCC1)C(=O)O; Cit = NC(=O)NCCC[C@H](N)C(=O)O; Ile(3ξ) = CCC(C)[C@H](N)C(=O)O; Thr(3ξ) = CC(O)[C@H](N)C(=O)O; Carboxymethyl = O=C(O)C*; NMeA = CN[C@@H](C)C(=O)O; Orn = NCCC[C@H](N)C(=O)O; Dab = NCC[C@H](N)C(=O)O; Dap = NC[C@H](N)C(=O)O; ξV = CC(C)C(N)C(=O)O; ξC = NC(CS)C(=O)O

The target in this test is T1, PE-labeled human PD-L1-Ig binding to Jurkat cell line over-expressing human PD-1 (Jurkat-PD-1) (Homo sapiens, UniProt Q15116).
T1 construct: expressed in transfected cells; host or cells: Jurkat
T1 sequence (Q15116 25-288): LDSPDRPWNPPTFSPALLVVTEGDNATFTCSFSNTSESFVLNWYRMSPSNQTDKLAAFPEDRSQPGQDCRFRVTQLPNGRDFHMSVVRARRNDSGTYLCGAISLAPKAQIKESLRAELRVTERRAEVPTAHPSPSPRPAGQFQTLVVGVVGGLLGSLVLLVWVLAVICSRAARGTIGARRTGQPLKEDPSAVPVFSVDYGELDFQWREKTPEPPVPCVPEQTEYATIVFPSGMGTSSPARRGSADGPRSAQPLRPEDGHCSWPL
Briefly: Jurkat-PD-1 Cell Binding High-Content Screening Assay (CBA): Method 1. The following applies: Jurkat-hPD-1 cells, PE-labeled PD-L1-Ig 20 nM final; read-out: Jurkat HPDL1 PD1 IC50 (uM) (Method 1).
On to `CC(C)C[C@@H]1NC(=O)[C@H](CCN)NC(=O)[C@@H](CC(C)C)NC(=O)[C@H](C)N(C)C(=O)[C@H](CCCNC(N)=O)NC(=O)[C@H](Cc2ccc(-c3ccccc3)cc2)NC(=O)[C@H](C(C)C)NC(=O)[C@H](Cc2c[nH]c3ccccc23)NC(=O)[C@H](CC(=O)O)NC(=O)[C@H](Cc2ccc(OCC(=O)O)cc2)NC(=O)[C@H](Cc2ccc(OCC(=O)O)cc2)NC(=O)CSC[C@@H](C(=O)N[C@@H](C)C(N)=O)NC(=O)[C@H]([C@@H](C)O)NC(=O)[C@H](C(C)C)NC1=O` [Compound 1569] ({CH2CO}-Y(Carboxymethyl)Y(Carboxymethyl)DWV[Bip][Cit][NMeA][dL][Dab]LVTCA-NH2; thioether N-14), for which the half-inhibitory concentration (IC50) is 0.04 µM. The same measure for `CC[C@@H](C)[C@@H]1NC(=O)[C@H](Cc2ccc(-c3ccccc3)cc2)NC(=O)[C@H](CC(C)C)NC(=O)[C@H](Cc2c[nH]c3ccccc23)NC(=O)[C@H](CC(=O)O)NC(=O)[C@H](Cc2ccc(C(=O)O)cc2)NC(=O)[C@H](Cc2ccc(OCC(=O)O)cc2)NC(=O)CSC[C@@H](C(=O)N[C@@H](CCCCN)C(N)=O)NC(=O)[C@H](CO)NC(=O)C(C(C)C)NC(=O)[C@H](CC(C)C)NC(=O)[C@H](CC(N)=O)NC(=O)[C@@H](CC(C)C)NC(=O)[C@H](C)N(C)C1=O` (stereo partly drawn) [Compound 2100] ({CH2CO}-Y(Carboxymethyl)[Phe(4-COOH)]DWL[Bip][aIle][NMeA][dL]NL[ξV]SCK-NH2; thioether N-14): 0.03 µM. With `COc1cccc(C[C@@H]2NC(=O)[C@H](CN)NC(=O)CSC[C@@H](C(=O)N[C@@H](C)C(N)=O)NC(=O)[C@H]([C@@H](C)O)NC(=O)[C@H](C(C)C)NC(=O)[C@H](CC(C)C)NC(=O)[C@H](CCN)NC(=O)[C@@H](CC(C)C)NC(=O)[C@H](C)N(C)C(=O)[C@H](C(C)C)NC(=O)[C@H](Cc3ccc(-c4ccccc4)cc3)NC(=O)[C@H](C(C)C)NC(=O)[C@H](Cc3c[nH]c4ccccc34)NC(=O)[C@H](CC(=O)O)NC2=O)c1` [Compound 1427] ({CH2CO}-[Dap][Phe(3-OMe)]DWV[Bip]V[NMeA][dL][Dab]LVTCA-NH2; thioether N-14), the concentration for half-maximal inhibition (IC50) turned out to be 0.11 µM. On to `CCC(C)[C@@H]1NC(=O)[C@H](Cc2ccc(-c3ccccc3)cc2)NC(=O)[C@H](C(C)C)NC(=O)[C@H](Cc2c[nH]c3ccccc23)NC(=O)[C@H](CC(=O)O)NC(=O)[C@H](Cc2ccc(O)cc2)NC(=O)[C@H](Cc2ccc3ccncc3c2)NC(=O)CSCC(C(=O)NCC(=O)O)NC(=O)[C@H](C(C)O)NC(=O)[C@H](C(C)C)NC(=O)[C@H](CC2CCCCC2)NC(=O)[C@H](CCN)NC(=O)[C@@H](CC(C)C)NC(=O)[C@H](C)N(C)C1=O` (stereo partly drawn) [Compound 2219] ({CH2CO}-[X28]YDWV[Bip][Ile(3ξ)][NMeA][dL][Dab][Cha]V[Thr(3ξ)][ξC]G-OH; thioether N-14), for which the half-inhibitory concentration (IC50) came to 0.02 µM.

With `CC(C)C[C@@H]1NC(=O)[C@H](Cc2c[nH]c3ccccc23)NC(=O)[C@H](CC(=O)O)NC(=O)[C@H](Cc2ccc(C(=O)O)cc2)NC(=O)[C@H](Cc2cccc(C(=O)O)c2)NC(=O)CSC[C@@H](C(=O)NCC(N)=O)NC(=O)[C@H](CO)NC(=O)[C@H](C(C)C)NC(=O)[C@H](CC2CCCCC2)NC(=O)[C@H](CCN)NC(=O)[C@@H](CC(C)C)NC(=O)[C@H](C)N(C)C(=O)[C@H](C(C)C)NC(=O)[C@H](Cc2ccc(-c3ccccc3)cc2)NC1=O` [Compound 1879] ({CH2CO}-[Phe(3-COOH)][Phe(4-COOH)]DWL[Bip]V[NMeA][dL][Dab][Cha]VSCG-NH2; thioether N-14), the concentration for half-maximal inhibition (IC50) came to 0.01 µM. As to `CC(C)C[C@@H]1NC(=O)[C@H](CCCNC(=N)N)NC(=O)[C@@H](CC(C)C)NC(=O)[C@H](C)N(C)C(=O)[C@H](CCCN)NC(=O)[C@H](Cc2ccc(-c3ccccc3)cc2)NC(=O)[C@H](C(C)C)NC(=O)[C@H](Cc2c[nH]c3ccccc23)NC(=O)[C@H](CC(=O)O)NC(=O)[C@H](Cc2ccc(O)cc2)NC(=O)[C@H](Cc2ccccc2)NC(=O)CSC[C@@H](C(=O)N[C@@H](C)C(N)=O)NC(=O)[C@H]([C@@H](C)O)NC(=O)[C@H](C(C)C)NC1=O` [Compound 1123] ({CH2CO}-FYDWV[Bip][Orn][NMeA][dL]RLVTCA-NH2; thioether N-14), the half-inhibitory concentration (IC50) was found to be 0.06 µM.
